This test deals with T1, full length AKT1 (Homo sapiens, UniProt P31749).
T1 construct: His tag (from vector pFastBacHTb) (N); made in house; host or cells: baculovirus; Sf9 / T. ni insect cells
T1 sequence (P31749 whole entry): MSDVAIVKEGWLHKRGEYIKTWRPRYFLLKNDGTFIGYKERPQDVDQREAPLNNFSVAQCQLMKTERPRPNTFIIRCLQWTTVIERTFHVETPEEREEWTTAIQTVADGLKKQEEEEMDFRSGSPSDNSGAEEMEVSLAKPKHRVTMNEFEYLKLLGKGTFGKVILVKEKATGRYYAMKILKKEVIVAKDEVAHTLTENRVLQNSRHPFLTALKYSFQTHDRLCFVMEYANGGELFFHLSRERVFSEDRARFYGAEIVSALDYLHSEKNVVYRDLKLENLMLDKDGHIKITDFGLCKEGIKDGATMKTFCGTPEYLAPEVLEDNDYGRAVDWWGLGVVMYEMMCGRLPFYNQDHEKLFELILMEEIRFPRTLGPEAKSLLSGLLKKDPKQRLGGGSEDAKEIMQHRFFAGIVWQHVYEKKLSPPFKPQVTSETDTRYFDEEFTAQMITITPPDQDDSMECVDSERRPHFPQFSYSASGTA
Nature of the test: AKT enzyme assay (substrate phosphorylation, SPA). In kind it is biochemical. The conditions noted are these: in at least one experimental run; pIC50 = -log(IC50), IC50 in molar units; 10 nM activated AKT enzyme, 4 uM ATP; read-out: pIC50 against full length AKT1 (converted). The text has this: Cloning of Full-length Human (FL) AKT1:
Full-length human AKT1 gene was amplified by PCR from a plasmid containing myristylated-AKT1-ER (gift from Robert T. Abraham, Duke University under MTA, described in Klippel et al. in Molecular and Cellular Biology 1998 Volume 18 p. 5699) using the 5′ primer: SEQ.ID NO: 2, 5′ […] 3′ and the 3′ primer: SEQ.ID NO: 3, […] 3′. The 5′ primer included a BamHI site and the 3′ primer included an XhoI site for cloning purposes. The resultant PCR product was subcloned in pcDNA3 as a BamHI/XhoI fragment. A mutation in the sequence (TGC) coding for a Cysteine^25 was converted to the wild-type AKT1 sequence (CGC) coding for an Arginine^25 by site-directed mutagenesis using the QuikChange® Site Directed Mutagenesis Kit (Stratagene). […] For expression/purification purposes, AKT1 was isolated as a BamHI/XhoI fragment and cloned into the BamHI/XhoI sites of pFastbacHTb (Invitrogen).
Expression of FL Human AKT1:
Expression was done using the BAC-to-BAC Baculovirus Expression System from Invitrogen (catalog #10359-016). Briefly 1) the cDNA was transferred from the FastBac vector into bacmid DNA, 2) the bacmid DNA was isolated and used to transfect Sf9 insect cells, 3) the virus was produced in Sf9 cells, 4) T. ni cells were infected with this virus and sent for purification.
Purification of FL Human AKT1:
For the purification of full-length AKT1, 130 g sf9 cells (batch #41646WO2) were resuspended in lysis buffer (buffer A, 1 L, pH 7.5) containing 25 mM HEPES, 100 mM NaCl, and 20 mM imidazole. The cell lysis was carried out by Avestin (2 passes at 15K-20K psi). Cell debris was removed by centrifuging at 16K rpm for 1 hour and the supernatant was batch bound to 10 ml Nickel Sepharose HP beads at 4 C for over night. The beads were then transferred to column and the bound material was eluted with buffer B (25 mM HEPES, 100 mM NaCl, 300 mM imidazole, pH 7.5). AKT eluting fractions were pooled and diluted 3 fold using buffer C (25 mM HEPES, 5 mM DTT; pH 7.5). The sample was filtered and chromatographed over a 10 mL Q-HP column pre-equilibrated with buffer C at 2 mL/min.
The Q-HP column was washed with 3 column volume (CV) of buffer C, then step eluted with 5 CV 10% D, 5 CV 20% D, 5 CV 30% D, 5 CV 50% D and 5 CV of 100% D; where buffer D is 25 mM HEPES, 1000 mM NaCl, 5 mM DTT; pH 7.5. 5 mL fractions collected. AKT containing fractions were pooled and concentrated to 5 ml. The protein was next loaded to a 120 ml Superdex 75 sizing column that was pre-equilibrated with 25 mM HEPES, 200 mM NaCl, 5 mM DTT; pH 7.5. 2.5 mL fractions were collected.
AKT 1 eluting fractions were pooled, aliquoted (1 ml) and stored at −80 C. Mass spec and SDS-PAGE analysis were used to confirm purity and identity of the purified full-length AKT1.
Compounds of the present invention are tested for AKT 1, 2, and 3 protein serine kinase inhibitory activity in substrate phosphorylation assays. This assay examines the ability of small molecule organic compounds to inhibit the serine phosphorylation of a peptide substrate. The substrate phosphorylation assays use the catalytic domains of AKT 1, 2, or 3. AKT 1, 2 and 3 are also commercially available from Upstate USA, Inc. The method measures the ability of the isolated enzyme to catalyze the transfer of the gamma-phosphate from ATP onto the serine residue of a biotinylated synthetic peptide SEQ. ID NO: 5 (Biotin-ahx-ARKRERAYSFGHHA-amide). Substrate phosphorylation is detected by the following procedure: […]
As for `Cn1nccc1-c1c(Cl)sc(NC(=O)C(CN)c2ccccc2)c1Cl` (centres unmarked) [Example 1, 3-amino-N-[3,5-dichloro-4-(1-methyl-1H-pyrazol-5-yl)-2-thienyl]-2-phenylpropanamide], the IC50 is 158 nM.

For the molecule `Cn1ncc(Cl)c1-c1cc(NC(=O)[C@@H](CN)Cc2ccccc2)sc1Cl` [Example 5, (2R)-3-amino-N-[5-chloro-4-(4-chloro-1-methyl-1H-pyrazol-5-yl)-2-thienyl]-2-(phenylmethyl)propanamide], the IC50 is 10 nM.

As to `Cn1ncc(Cl)c1-c1cc(NC(=O)[C@H](CN)Cc2ccc(F)c(F)c2)sc1Cl` [Example 7, (2S)-3-amino-N-[5-chloro-4-(4-chloro-1-methyl-1H-pyrazol-5-yl)-2-thienyl]-2-[(3,4-difluorophenyl)methyl]propanamide], the IC50 is 1.58 nM.

Consider `Cn1ncc(Cl)c1-c1cc(NC(=O)[C@@H](CN)Cc2ccccc2F)sc1Cl` [Example 10, (2R)-3-amino-N-[5-chloro-4-(4-chloro-1-methyl-1H-pyrazol-5-yl)-2-thienyl]-2-[(2-fluorophenyl)methyl]propanamide], for which the IC50 was 5.01 nM.

As to `Cn1ncc(Cl)c1-c1cc(NC(=O)[C@H](CN)Cc2cccc(F)c2)sc1Cl` [Example 13, (2S)-3-amino-N-[5-chloro-4-(4-chloro-1-methyl-1H-pyrazol-5-yl)-2-thienyl]-2-[(3-fluorophenyl)methyl]propanamide], the IC50 is 2.51 nM.

For the origin of these results see patent US8592475B2, “Inhibitors of Akt activity” (GlaxoSmithKline LLC, priority 2008, dated 2013).
